ChEMBL document CHEMBL4219122, “Synthesis and biological evaluation of histone deacetylase and DNA topoisomerase II-Targeted inhibitors” (Bioorg Med Chem, 2018)
The source made the active and inactive calls. No cut-off for these calls is given here.

Assays:
OVCAR-3 = test: Growth inhibition of human OVCAR3 cells after 48 hrs by sulforhodamine B-based colorimetric assay; type: functional; conditions: OVCAR-3, 48 h
[1] = molecular target: T1, Protein deacetylase HDAC6 (Mus musculus, UniProt Q9Z2V5); test: Inhibition of recombinant mouse HDAC6 expressed in HEK293T cells co-expressing mouse HDA2 using Ac-KGLGK(Ac)-MCA as substrate after 30 mins in presence of DTT by fluorescence assay
T1 sequence (Q9Z2V5 whole entry): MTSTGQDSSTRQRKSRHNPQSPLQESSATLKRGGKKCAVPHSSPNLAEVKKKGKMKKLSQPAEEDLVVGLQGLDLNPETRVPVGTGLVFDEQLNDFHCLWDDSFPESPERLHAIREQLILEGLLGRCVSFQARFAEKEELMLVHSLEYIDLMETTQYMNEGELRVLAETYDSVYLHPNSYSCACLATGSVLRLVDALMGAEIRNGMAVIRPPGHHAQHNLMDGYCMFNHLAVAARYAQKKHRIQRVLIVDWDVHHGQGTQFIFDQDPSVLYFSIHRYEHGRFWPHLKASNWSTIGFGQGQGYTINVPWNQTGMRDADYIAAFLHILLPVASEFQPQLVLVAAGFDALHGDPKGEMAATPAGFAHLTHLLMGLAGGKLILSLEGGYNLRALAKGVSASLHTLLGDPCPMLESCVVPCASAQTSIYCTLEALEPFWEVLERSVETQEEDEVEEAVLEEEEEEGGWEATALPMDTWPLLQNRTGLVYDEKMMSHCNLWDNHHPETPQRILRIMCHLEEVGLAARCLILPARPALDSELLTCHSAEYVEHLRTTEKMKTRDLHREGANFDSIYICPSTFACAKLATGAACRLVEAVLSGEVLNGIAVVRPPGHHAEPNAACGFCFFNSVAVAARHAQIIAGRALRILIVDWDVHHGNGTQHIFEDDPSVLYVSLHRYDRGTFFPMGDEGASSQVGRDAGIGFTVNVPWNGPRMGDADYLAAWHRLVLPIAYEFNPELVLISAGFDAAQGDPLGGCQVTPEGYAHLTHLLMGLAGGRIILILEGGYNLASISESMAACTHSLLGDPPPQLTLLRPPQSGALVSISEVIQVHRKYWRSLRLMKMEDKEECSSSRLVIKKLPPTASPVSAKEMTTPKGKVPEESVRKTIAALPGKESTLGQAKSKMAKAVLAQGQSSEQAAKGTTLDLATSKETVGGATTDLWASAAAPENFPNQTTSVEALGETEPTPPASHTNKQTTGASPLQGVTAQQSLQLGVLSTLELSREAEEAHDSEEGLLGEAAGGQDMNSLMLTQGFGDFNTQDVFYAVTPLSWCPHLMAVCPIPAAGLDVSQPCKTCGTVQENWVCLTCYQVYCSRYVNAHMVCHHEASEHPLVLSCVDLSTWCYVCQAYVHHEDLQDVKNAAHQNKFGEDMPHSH

MCF7 = test: Growth inhibition of human MCF7 cells after 48 hrs by sulforhodamine B-based colorimetric assay; type: functional, cell-based; conditions: MCF7, 48 h
HCT-116 = test: Growth inhibition of human HCT116 cells after 48 hrs by sulforhodamine B-based colorimetric assay; type: functional, cell-based; conditions: HCT-116, 48 h
[2] = Growth inhibition of human HBC4 cells after 48 hrs by sulforhodamine B-based colorimetric assay; type: functional; conditions: HBC4, 48 h
U-251 = test: Growth inhibition of human U251 cells after 48 hrs by sulforhodamine B-based colorimetric assay; type: functional; conditions: U-251, 48 h
SF-295 = test: Growth inhibition of human SF295 cells after 48 hrs by sulforhodamine B-based colorimetric assay; type: functional; conditions: SF-295, 48 h
SF-539 = test: Growth inhibition of human SF539 cells after 48 hrs by sulforhodamine B-based colorimetric assay; type: functional; conditions: SF-539, 48 h
SNB-75 = test: Growth inhibition of human SNB75 cells after 48 hrs by sulforhodamine B-based colorimetric assay; type: functional; conditions: SNB-75, 48 h
SNB-78 = test: Growth inhibition of human SNB78 cells after 48 hrs by sulforhodamine B-based colorimetric assay; type: functional; conditions: SNB-78, 48 h
HCC 2998 = test: Growth inhibition of human HCC2998 cells after 48 hrs by sulforhodamine B-based colorimetric assay; type: functional; conditions: HCC 2998, 48 h
HT-29 = test: Growth inhibition of human HT-29 cells after 48 hrs by sulforhodamine B-based colorimetric assay; type: functional; conditions: HT-29, 48 h
NCI-H522 = test: Growth inhibition of human NCI-H522 cells after 48 hrs by sulforhodamine B-based colorimetric assay; type: functional; conditions: NCI-H522, 48 h
NCI-H460 = test: Growth inhibition of human NCI-H460 cells after 48 hrs by sulforhodamine B-based colorimetric assay; type: functional; conditions: NCI-H460, 48 h
A549 = test: Growth inhibition of human A549 cells after 48 hrs by sulforhodamine B-based colorimetric assay; type: functional; conditions: A549, 48 h
DMS-273 = test: Growth inhibition of human DMS273 cells after 48 hrs by sulforhodamine B-based colorimetric assay; type: functional; conditions: DMS-273, 48 h
OVCAR-4 = test: Growth inhibition of human OVCAR4 cells after 48 hrs by sulforhodamine B-based colorimetric assay; type: functional; conditions: OVCAR-4, 48 h
SK-OV-3 = test: Growth inhibition of human SKOV3 cells after 48 hrs by sulforhodamine B-based colorimetric assay; type: functional; conditions: SK-OV-3, 48 h
ACHN = test: Growth inhibition of human ACHN cells after 48 hrs by sulforhodamine B-based colorimetric assay; type: functional
St-4 = test: Growth inhibition of human St-4 cells after 48 hrs by sulforhodamine B-based colorimetric assay; type: functional; conditions: St-4, 48 h
MKN-1 = test: Growth inhibition of human MKN1 cells after 48 hrs by sulforhodamine B-based colorimetric assay; type: functional; conditions: MKN-1, 48 h
MKN-7 = test: Growth inhibition of human MKN7 cells after 48 hrs by sulforhodamine B-based colorimetric assay; type: functional; conditions: MKN-7, 48 h
MKN-45 = test: Growth inhibition of human MKN45 cells after 48 hrs by sulforhodamine B-based colorimetric assay; type: functional; conditions: MKN-45, 48 h
MKN-74 = test: Growth inhibition of human MKN74 cells after 48 hrs by sulforhodamine B-based colorimetric assay; type: functional; conditions: MKN-74, 48 h
PC-3 = test: Growth inhibition of human PC3 cells after 48 hrs by sulforhodamine B-based colorimetric assay; type: functional; conditions: PC-3, 48 h
[3] = Growth inhibition of human HBC5 cells after 48 hrs by sulforhodamine B-based colorimetric assay; type: functional; conditions: HBC5, 48 h
[4] = molecular target: T2, DNA topoisomerase 2-alpha (Homo sapiens, UniProt P11388); test: Inhibition of human topoisomerase-2 alpha-mediated kinetoplast DNA decatenation at 100 to 400 uM after 30 mins by ethidium bromide staining based agarose gel electrophoresis
[5] = molecular target: T2, DNA topoisomerase 2-alpha; test: Inhibition of human topoisomerase-2 alpha-mediated kinetoplast DNA decatenation at 200 uM after 30 mins by ethidium bromide staining based agarose gel electrophoresis

T2 sequence (P11388 whole entry): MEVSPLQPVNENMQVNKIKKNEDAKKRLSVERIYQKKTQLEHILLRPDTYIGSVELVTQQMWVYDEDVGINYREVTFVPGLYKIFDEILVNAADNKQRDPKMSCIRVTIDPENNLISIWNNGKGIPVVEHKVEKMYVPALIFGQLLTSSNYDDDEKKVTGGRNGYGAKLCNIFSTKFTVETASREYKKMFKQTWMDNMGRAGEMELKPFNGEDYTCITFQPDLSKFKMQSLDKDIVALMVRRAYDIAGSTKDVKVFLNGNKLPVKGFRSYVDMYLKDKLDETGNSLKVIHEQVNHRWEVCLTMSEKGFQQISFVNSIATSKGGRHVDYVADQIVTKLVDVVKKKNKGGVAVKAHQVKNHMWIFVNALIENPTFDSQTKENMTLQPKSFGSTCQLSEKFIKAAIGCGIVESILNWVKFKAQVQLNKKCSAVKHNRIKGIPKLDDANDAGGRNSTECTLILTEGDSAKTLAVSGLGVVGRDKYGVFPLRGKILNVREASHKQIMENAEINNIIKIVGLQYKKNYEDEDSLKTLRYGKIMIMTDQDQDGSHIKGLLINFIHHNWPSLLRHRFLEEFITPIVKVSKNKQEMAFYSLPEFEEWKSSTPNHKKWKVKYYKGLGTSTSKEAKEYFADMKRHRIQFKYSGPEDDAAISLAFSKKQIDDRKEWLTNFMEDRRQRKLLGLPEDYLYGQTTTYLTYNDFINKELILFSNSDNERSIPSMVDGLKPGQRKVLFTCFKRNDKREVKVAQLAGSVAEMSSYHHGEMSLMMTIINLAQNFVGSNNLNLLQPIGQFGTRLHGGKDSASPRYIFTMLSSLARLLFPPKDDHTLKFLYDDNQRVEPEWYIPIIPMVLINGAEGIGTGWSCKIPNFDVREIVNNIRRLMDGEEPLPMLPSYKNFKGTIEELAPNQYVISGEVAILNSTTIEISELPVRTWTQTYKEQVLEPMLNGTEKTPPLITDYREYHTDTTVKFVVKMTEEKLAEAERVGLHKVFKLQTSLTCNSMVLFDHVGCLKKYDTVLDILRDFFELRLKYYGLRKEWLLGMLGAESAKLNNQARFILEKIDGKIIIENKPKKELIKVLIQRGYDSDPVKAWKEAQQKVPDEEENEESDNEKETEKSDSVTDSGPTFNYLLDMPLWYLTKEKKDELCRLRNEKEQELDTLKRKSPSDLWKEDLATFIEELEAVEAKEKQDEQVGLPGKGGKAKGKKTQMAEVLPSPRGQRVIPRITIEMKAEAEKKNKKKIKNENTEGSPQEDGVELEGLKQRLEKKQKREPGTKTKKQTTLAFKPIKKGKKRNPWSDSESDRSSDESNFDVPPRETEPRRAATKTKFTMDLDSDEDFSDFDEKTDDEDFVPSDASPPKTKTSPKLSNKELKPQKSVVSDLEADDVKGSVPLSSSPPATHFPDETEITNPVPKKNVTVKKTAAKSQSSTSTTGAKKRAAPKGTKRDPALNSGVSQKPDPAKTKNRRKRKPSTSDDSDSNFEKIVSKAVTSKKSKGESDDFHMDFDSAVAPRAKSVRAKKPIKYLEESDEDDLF

GI50 (OVCAR-3) [µM] | IC50 [1] [µM] | GI50 (MCF7; read-out: GI50) [µM] | GI50 (MCF7; read-out: pGI50 (converted)) [µM] | GI50 (HCT-116; read-out: GI50) [µM] | GI50 (HCT-116; read-out: pGI50 (converted)) [µM] | GI50 (U-251) [µM] | GI50 (HCC 2998) [µM] | GI50 (HT-29) [µM] | GI50 (NCI-H522) [µM] | GI50 (NCI-H460) [µM] | GI50 (A549) [µM] | GI50 (OVCAR-4) [µM] | GI50 (SK-OV-3) [µM] | SMILES | GI50 [2] [µM] | GI50 (SF-295) [µM] | GI50 (SF-539) [µM] | GI50 (SNB-75) [µM] | GI50 (SNB-78) [µM] | GI50 (DMS-273) [µM] | also measured
3.02 | 0.044 | 3.89 | 3.89 | 4.17 | 4.17 | 5.13 | 8.32 | 7.08 | 2.69 | 4.68 | 8.51 | 3.98 | 12.9 | Cc1cn([C@@H]2C[C@H](C3(c4ccc(NC(=O)CCCCCCC(=O)NO)cc4)SCCCS3)[C@@H](CO[Si](C)(C)C(C)(C)C)O2)c(=O)[nH]c1=O | 4.17 | 6.92 | 4.57 | 5.5 | 10 | 3.98 | GI50 (ACHN): 9.33 µM; GI50 (St-4): 8.71 µM; GI50 (MKN-1): 4.47 µM; GI50 (MKN-7): 3.47 µM; GI50 (MKN-45): 10 µM; GI50 (MKN-74): 5.75 µM; GI50 (PC-3): 4.57 µM; GI50 [3]: 6.31 µM; inhibition [4]: Active; inhibition [5]: Active
2.95 | 0.051 | 3.24 | 3.24 | 3.39 | 3.39 | 3.98 | 3.98 | 3.63 | 2.69 | 3.98 | 5.01 | 3.24 | 4.07 | Cc1cn([C@H]2C[C@H](C3(c4ccc(NC(=O)CCCCCCC(=O)NO)cc4)SCCCS3)[C@@H](CO[Si](C)(C)C(C)(C)C)O2)c(=O)[nH]c1=O | 3.89 | 4.9 | 3.39 | 5.37 | 6.76 | 3.89 | GI50 (ACHN): 4.37 µM; GI50 (St-4): 4.07 µM; GI50 (MKN-1): 2.95 µM; GI50 (MKN-7): 2.95 µM; GI50 (MKN-45): 3.8 µM; GI50 (MKN-74): 4.47 µM; GI50 (PC-3): 4.37 µM; GI50 [3]: 6.46 µM; inhibition [4]: Active; inhibition [5]: Active
